Source: patent US10898548B2, “Modulators of protein tyrosine phosphatase and uses thereof” (LEUVAS THERAPEUTICS, priority 2015, dated 2021)

What was measured:
[1] = in vitro phosphatase assay of TAT-ICD (pNPP); type: biochemical; conditions: 50 μM TAT control peptide or 50 μM TAT-ICD; 30 minutes
Protocol: Cells were then sonicated twice (6 sec, 15% \N) and centrifuged at 2000 rpm for 10 minutes. The supernatants were collected and centrifuged at 28000 rpm for 60 minutes and then the membrane pellets were dissolved in 20 mM tris pH 7.4. Equal amount of membrane fractions were added to pNPP buffer containing 20 mM tris, 10 mM DTT and 2 mM pNPP. Following, DMSO and 50 μM TAT control peptide or 50 μM TAT-ICD, in presence or absence of 200 μM Na3VO4 were added. After 30 minutes of incubation, levels of de-phosphorylation, in presence or absence of orthovanadate, were measured at 405 nm by a plate reader (Table 5). Shown is % fold increase over the pNPP buffer alone; mean values of 7 experiments in triplicate.

[2] = tested on: T98G GBM cells; experiment: MTT survival assay, T98G GBM cells; type: cell-based, human
Protocol: (§1) The DBTRG-O5MG (Denver Brain Tumor Research Group 05) cell line was established from tissue from a patient with glioblastoma multiforme who had been treated with local brain irradiation and multi drug chemotherapy (Kruse C A, et al. 1992 In vitro Cell Dev Biol, 28A(9-10):609-14). U87 is a commonly studied and thoroughly characterized grade IV glioma cell line derived from malignant glioma (Clark M J, et al, 2010 Plos Genet. 6(1):e1000832.). T98G is a glioblastoma multiforme cell line extracted from a person (Stein G H, 1979, J. Cell Physiol, 99(1):43-54). Proliferation and survival were assessed following TAT-ICD or control peptide (Table 29) or the P1-WD or control peptide treatment using the MTT assay as described above. Data are relative absorption; mean and standard deviation.

[3] = tested on: human neutrophils; experiment: fMLP-triggered adhesion of neutrophils (PMNs) to ICAM-1; type: cell-based; conditions: mean ± SD
Protocol: We investigated the functional effect of PTPRG activation on integrin activation and mediated adhesion by chemoattractants in human primary monocytes and PMNs in a static and flow adhesion assays. Briefly, human primary monocytes or polymorphonuclear cells were suspended at 5×10^6/ml in standard adhesion buffer. Adhesion assays were performed on 18-well glass slides coated with 1 mg/ml human fibrinogen or with 1 μg/ml human ICAM-1 in PBS; 20 μl of cell suspension were added to the coated wells and stimulated for 1 min at 37° C. with 5 μl of fMLP, 0.05 μM final concentration. After rapid washing, adherent cells were fixed in ice-cold 1.5% glutaraldehyde in PBS, and still images of adherent cells in 0.2 mm^2 fields were acquired al 20× phase contrast magnification, NA 0.40, with a charge-coupled device camera (ICD-42B; Ikegami) connected to an inverted microscope (IX50; Olympus). Image acquisition and computer-assisted enumeration of adherent cells were performed with ImageJ (National Institute of Health).
Chemokine-triggered adhesion of human neutrophils was measured similarly. Freshly isolated, non-activated human neutrophils incubated with buffer or increasing concentrations of TAT-ICD and then spotted onto ICAM-1-coated slides. Integrin-mediated adhesion was triggered using 50 nM fMLP and the adherent cells were fixed and enumerated as described for the lymphocytes above.

[4] = tested on: DBTRG GBM cells; experiment: VYBRANT early apoptosis, DBTRG GBM cells; type: cell-based, human; conditions: 0.5 μM
[5] = tested on: U87 GBM cells; experiment: VYBRANT apoptosis, U87 GBM cells; type: cell-based; conditions: 0.5 μM
[6] = tested on: bEnd3 endothelial cells; experiment: MTT assay, bEnd3 endothelial cells; type: cell-based
[7] = tested on: COS7 cells; experiment: MTT assay, COS7 cells; type: cell-based
[8] = tested on: U87 GBM cells; experiment: MTT survival assay, U87 GBM cells; type: cell-based
Protocol: as §1

TAT-ICD: fusion recombinant protein SEQ ID 5: PTPRG intracellular domain aa 797-1445 fused to 13 aa TAT sequence
phosphatase activity, % fold increase over the pNPP buffer alone [1]: 4661.0%
absorbance in the MTT assay ([2]; TAT-ICD 0.5 μM, 24 hours, CTRL 971): 921
absorbance in the MTT assay ([2]; TAT-ICD 0.5 μM, 48 hours, CTRL 1305): 1301
absorbance in the MTT assay ([2]; TAT-ICD 0.5 μM, 72 hours, CTRL 1481): 1061
absorbance in the MTT assay ([2]; TAT-ICD 1 μM, 24 hours, CTRL 971): 745
absorbance in the MTT assay ([2]; TAT-ICD 1 μM, 48 hours, CTRL 1305): 947
absorbance in the MTT assay ([2]; TAT-ICD 1 μM, 72 hours, CTRL 1481): 935
absorbance in the MTT assay ([2]; TAT-ICD 2 μM, 24 hours, CTRL 971): 552
absorbance in the MTT assay ([2]; TAT-ICD 2 μM, 48 hours, CTRL 1305): 687
absorbance in the MTT assay ([2]; TAT-ICD 2 μM, 72 hours, CTRL 1481): 625
adhesion of human neutrophils to ICAM-1 (adherent cells), Resting (no stimulation) ([3]; TAT-ICD 0.5 micromolar): 12 ± 5
adhesion of human neutrophils to ICAM-1 (adherent cells), Resting (no stimulation) ([3]; TAT-ICD 1.0 micromolar): 12 ± 5
percent of apoptotic cells by flow cytometry ([4]; 1 h, Control 14): 25%
percent of apoptotic cells by flow cytometry ([4]; 3 h, Control 16): 40%
percent of apoptotic cells by flow cytometry ([4]; 6 h, Control 33): 70%
percent of apoptotic cells ([5]; 1 hour, Control 10): 67%
percent of apoptotic cells ([5]; 3 hours, Control 3): 60%
percent of apoptotic cells ([5]; 6 hours, Control 14): 70%
mean absorbance in the MTT assay ([6]; 0.1 uM, 24 hours, CTRL 352): 373
mean absorbance in the MTT assay ([6]; 0.1 uM, 48 hours, CTRL 523): 513
mean absorbance in the MTT assay ([6]; 0.25 uM, 24 hours, CTRL 352): 378
mean absorbance in the MTT assay ([6]; 0.25 uM, 48 hours, CTRL 523): 579
mean absorbance in the MTT assay ([6]; 0.5 uM, 24 hours, CTRL 352): 393
mean absorbance in the MTT assay ([6]; 0.5 uM, 48 hours, CTRL 523): 545
mean absorbance in the MTT assay ([7]; 0.1 μM, 24 hours, CTRL 700): 674
mean absorbance in the MTT assay ([7]; 0.1 μM, 48 hours, CTRL 1267): 1391
mean absorbance in the MTT assay ([7]; 0.1 μM, 72 hours, CTRL 1500): 1481
mean absorbance in the MTT assay ([7]; 0.25 μM, 24 hours, CTRL 700): 684
mean absorbance in the MTT assay ([7]; 0.25 μM, 48 hours, CTRL 1267): 1289
mean absorbance in the MTT assay ([7]; 0.25 μM, 72 hours, CTRL 1500): 1489
mean absorbance in the MTT assay ([7]; 0.5 μM, 24 hours, CTRL 700): 694
mean absorbance in the MTT assay ([7]; 0.5 μM, 48 hours, CTRL 1267): 1295
mean absorbance in the MTT assay ([7]; 0.5 μM, 72 hours, CTRL 1500): 1461
MTT relative absorption ([8]; 0.1 μM, 24 hours, CTRL 1200): 1070
MTT relative absorption ([8]; 0.1 μM, 48 hours, CTRL 1200): 1167
MTT relative absorption ([8]; 0.1 μM, 72 hours, CTRL 1336): 813
MTT relative absorption ([8]; 0.25 μM, 24 hours, CTRL 1200): 1069
MTT relative absorption ([8]; 0.25 μM, 48 hours, CTRL 1200): 1062
MTT relative absorption ([8]; 0.25 μM, 72 hours, CTRL 1336): 650
MTT relative absorption ([8]; 0.5 μM, 24 hours, CTRL 1200): 1000
MTT relative absorption ([8]; 0.5 μM, 48 hours, CTRL 1200): 977
MTT relative absorption ([8]; 0.5 μM, 72 hours, CTRL 1336): 650
